# Laboratory results published in patent US12054498B2, “Heteroaromatic macrocyclic ether chemotherapeutic agents” (Nuvalent, Inc., priority 2020, dated 2024).
# How the values were obtained:
# ALK-wt = target: T1, ALK-wt (Homo sapiens, UniProt Q9UM73); assay: Biochemical kinase assay, ALK-wt kinase domain; conditions: apparent inhibitory constant, Morrison equation; ATP 2 mM in substrate solution; read-out: ALK-wt Ki^app
# T1 construct: purchased Carna 08-518
# In short: (§1)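 Apparent Ki values come from fitting initial reaction rates against inhibitor concentration to the Morrison equation. Rates were taken from the linear phase of fluorogenic substrate phosphorylation (AQT0101 for ALK and ROS1, AQT0104 for TRKA; 26 μM in substrate solution with 2 mM ATP), monitored at 485 nm over 120 min at 30° C.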
# ALK L1196M/G1202R = target: T2, ALK L1196M/G1202R (Homo sapiens, UniProt Q9UM73, G1202R/L1196M); assay: Biochemical kinase assay, ALK L1196M/G1202R kinase domain; conditions: apparent inhibitory constant, Morrison equation; ATP 2 mM in substrate solution; read-out: ALK-L1196M-G1202R Ki^app
# T2 construct: purchased SignalChem A19-12NG
# In short: as §1
# ROS1-wt = target: T3, ROS1-wt (Homo sapiens, UniProt P08922); assay: Biochemical kinase assay, ROS1-wt kinase domain; conditions: apparent inhibitory constant, Morrison equation; ATP 2 mM in substrate solution; read-out: ROS1-wt Ki^app
# T3 construct: purchased Carna 08-163
# In short: (§2)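 Compounds, as 100-fold DMSO stocks, were dispensed first, then substrate mix was added (ATP 2 mM, AQT0101 26 μM, in 50 mM HEPES pH 7.5/10 mM MgCl2). Reactions ran at 30 °C with fluorescence logged every 2 min over 120 min. Apparent inhibition constants came from fitting rates to Morrison's tight-binding equation.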
# ROS1-G2032R = target: T4, ROS1-G2032R (Homo sapiens, UniProt P08922, G2032R); assay: Biochemical kinase assay, ROS1-G2032R kinase domain; conditions: apparent inhibitory constant, Morrison equation; ATP 2 mM in substrate solution; read-out: ROS1-G2032R Ki^app
# T4 construct: purchased SignalChem R14-12BG
# In short: as §2
# TRKA-wt = target: T5, TRKA-wt (Homo sapiens, UniProt P04629); assay: Biochemical kinase assay, TRKA-wt kinase domain; conditions: apparent inhibitory constant, Morrison equation; ATP 2 mM in substrate solution; read-out: TRKA-wt Ki^app
# T5 construct: or TRKA-wt (1 nM, BPS Bio, 40280) kinase domains in buffer; purchased BPS Bio 40280
# In short: as §1
# [1] = target: T6, Ba/F3 cells CD74-ROS1 wild-type (wt) (Homo sapiens, UniProt P08922); assay: Ba/F3 cell proliferation assay, CD74-ROS1 wild-type; assay type: cell-based; conditions: 72 hours, CellTiter-Glo
# T6 construct: fusion of the C-terminus of ROS1 with the N-terminus of various partner proteins; host or cells: Ba/F3 (RIKEN), retroviral pMSCV-puro; the other entry of the earlier key: CD74 (P04233, HLA class II histocompatibility antigen gamma chain)
# In short: (§3)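 Cells seeded 1 day, then treated with 3-fold compound dilutions for 72 h; viability by CellTiter-Glo luminescence. IC50 from percent inhibition by four-parameter logistic fit.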
# [2] = target: T7, Ba/F3 cells CD74-ROS1 G2032R (Homo sapiens, UniProt P08922, G2032R); assay: Ba/F3 cell proliferation assay, CD74-ROS1 G2032R; assay type: cell-based; conditions: 72 hours, CellTiter-Glo
# T7 construct: fusion of the C-terminus of ROS1 with the N-terminus of various partner proteins; host or cells: Ba/F3 (RIKEN), retroviral pMSCV-puro; the other entry of the earlier key: CD74 (P04233, HLA class II histocompatibility antigen gamma chain)
# In short: as §3
# [3] = target: T8, Ba/F3 cells EML4-ALK wt (variant 1) (Homo sapiens, UniProt Q9UM73); assay: Ba/F3 cell proliferation assay, EML4-ALK wt (variant 1); assay type: cell-based; conditions: 72 hours, CellTiter-Glo
# T8 construct: echinoderm microtubule-associated protein-like 4 (EML4) gene and the ALK tyrosine kinase domain; host or cells: Ba/F3 (RIKEN), retroviral pMSCV-puro; the other entry of the earlier key: EML4 (Q9HC35, Echinoderm microtubule-associated protein-like 4)
# In short: (§4)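 Ba/F3 lines stably expressing the fusion (retroviral pMSCV-puro, selected by IL-3 withdrawal plus puromycin 0.8 μg/mL, monoclonal) were seeded at 1,000 cells/well, dosed next day with 3-fold compound dilutions, and incubated 72 hours. CellTiter-Glo luminescence gave percent inhibition; IC50 by four-parameter logistic fit.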
# [4] = target: T9, Ba/F3 cells EML4-ALK L1196M/G1202R (variant 1) (Homo sapiens, UniProt Q9UM73, G1202R/L1196M); assay: Ba/F3 cell proliferation assay, EML4-ALK L1196M/G1202R (variant 1); assay type: cell-based; conditions: 72 hours, CellTiter-Glo
# T9 construct: echinoderm microtubule-associated protein-like 4 (EML4) gene and the ALK tyrosine kinase domain; host or cells: Ba/F3 (RIKEN), retroviral pMSCV-puro; the other entry of the earlier key: EML4 (Q9HC35, Echinoderm microtubule-associated protein-like 4)
# In short: as §4
# Ba/F3 cells TPM3-TRKA = target: T10, Ba/F3 cells TPM3-TRKA (Homo sapiens, UniProt P04629); assay: Ba/F3 cell proliferation assay, TPM3-TRKA; assay type: cell-based; conditions: 72 hours, CellTiter-Glo, read-out: TPM3-NTRK1-wt IC50
# T10 construct: host or cells: Ba/F3 (RIKEN), retroviral pMSCV-puro; the other entry of the earlier key: TPM3 (P06753, Tropomyosin alpha-3 chain)
# In short: as §4
# [5] = system: TPM3-NTRK1-wt IC50 / primary target IC50 (e.g. CD74-ROS1-wt); assay: TRKA selectivity in Ba/F3 cells (TRKA potency divided by primary target potency); assay type: cell-based; conditions: for TPM3-NTRK1-wt/CD74-ROS1-G2032R selectivity ratio: TRKA potency / CD74-ROS1-G2032R potency; for TPM3-NTRK1-wt/CD74-ROS1-wt selectivity ratio: TRKA potency / CD74-ROS1-wt potency; for TPM3-NTRK1-wt/EML4-ALK-L1196M-G1202R selectivity ratio: TRKA potency / EML4-ALK-L1196M-G1202R potency; for TPM3-NTRK1-wt/EML4-ALK-wt selectivity ratio: TRKA potency / EML4-ALK-wt potency
# Experimental: TRKA selectivity was calculated by dividing a compound's TRKA potency by its primary target potency (e.g. TPM3-NTRK1-wt IC50/CD74-ROS1-wt IC50). Compound selectivity can be interpreted by binning ratio values: bin A for very high selectivity, ratio >30-fold; bin B for high selectivity, ratio >10-fold; bin C for moderate selectivity, ratio ≥1; and bin D for low selectivity, ratio <1. […] (nd=not determined).
# T5 sequence (P04629 510-781 limits assumed): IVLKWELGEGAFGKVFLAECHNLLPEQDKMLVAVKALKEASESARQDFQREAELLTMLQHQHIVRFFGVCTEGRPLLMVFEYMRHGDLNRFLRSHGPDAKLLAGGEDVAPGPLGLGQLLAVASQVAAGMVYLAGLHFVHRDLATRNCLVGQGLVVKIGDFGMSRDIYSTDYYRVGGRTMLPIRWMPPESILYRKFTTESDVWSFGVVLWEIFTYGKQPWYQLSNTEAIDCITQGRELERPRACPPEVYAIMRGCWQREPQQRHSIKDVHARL
# T2 sequence (Q9UM73 1116-1392 L1196M/G1202R limits assumed): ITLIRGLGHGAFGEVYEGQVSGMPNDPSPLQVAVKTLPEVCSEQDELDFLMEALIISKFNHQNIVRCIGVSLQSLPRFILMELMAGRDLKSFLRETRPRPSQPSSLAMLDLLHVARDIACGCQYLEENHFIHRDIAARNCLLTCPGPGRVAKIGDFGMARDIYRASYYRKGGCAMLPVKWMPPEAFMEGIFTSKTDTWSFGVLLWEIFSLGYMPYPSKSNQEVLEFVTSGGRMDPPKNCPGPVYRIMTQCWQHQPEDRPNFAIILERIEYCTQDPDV
# T7 sequence (P08922 1883-2347 G2032R limits assumed): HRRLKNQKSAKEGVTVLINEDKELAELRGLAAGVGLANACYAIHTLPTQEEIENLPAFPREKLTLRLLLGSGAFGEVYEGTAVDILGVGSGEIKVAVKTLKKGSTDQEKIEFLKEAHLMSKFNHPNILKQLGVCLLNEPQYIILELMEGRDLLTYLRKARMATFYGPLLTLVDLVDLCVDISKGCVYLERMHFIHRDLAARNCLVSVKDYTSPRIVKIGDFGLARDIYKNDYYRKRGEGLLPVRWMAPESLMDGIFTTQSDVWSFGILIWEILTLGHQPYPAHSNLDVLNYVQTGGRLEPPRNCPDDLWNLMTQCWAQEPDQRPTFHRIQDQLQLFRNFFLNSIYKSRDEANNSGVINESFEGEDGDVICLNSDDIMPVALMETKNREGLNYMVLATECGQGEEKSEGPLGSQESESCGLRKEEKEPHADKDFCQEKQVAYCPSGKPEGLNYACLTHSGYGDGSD
# T9 sequence (Q9UM73 with tags, fused parts or gaps L1196M/G1202R): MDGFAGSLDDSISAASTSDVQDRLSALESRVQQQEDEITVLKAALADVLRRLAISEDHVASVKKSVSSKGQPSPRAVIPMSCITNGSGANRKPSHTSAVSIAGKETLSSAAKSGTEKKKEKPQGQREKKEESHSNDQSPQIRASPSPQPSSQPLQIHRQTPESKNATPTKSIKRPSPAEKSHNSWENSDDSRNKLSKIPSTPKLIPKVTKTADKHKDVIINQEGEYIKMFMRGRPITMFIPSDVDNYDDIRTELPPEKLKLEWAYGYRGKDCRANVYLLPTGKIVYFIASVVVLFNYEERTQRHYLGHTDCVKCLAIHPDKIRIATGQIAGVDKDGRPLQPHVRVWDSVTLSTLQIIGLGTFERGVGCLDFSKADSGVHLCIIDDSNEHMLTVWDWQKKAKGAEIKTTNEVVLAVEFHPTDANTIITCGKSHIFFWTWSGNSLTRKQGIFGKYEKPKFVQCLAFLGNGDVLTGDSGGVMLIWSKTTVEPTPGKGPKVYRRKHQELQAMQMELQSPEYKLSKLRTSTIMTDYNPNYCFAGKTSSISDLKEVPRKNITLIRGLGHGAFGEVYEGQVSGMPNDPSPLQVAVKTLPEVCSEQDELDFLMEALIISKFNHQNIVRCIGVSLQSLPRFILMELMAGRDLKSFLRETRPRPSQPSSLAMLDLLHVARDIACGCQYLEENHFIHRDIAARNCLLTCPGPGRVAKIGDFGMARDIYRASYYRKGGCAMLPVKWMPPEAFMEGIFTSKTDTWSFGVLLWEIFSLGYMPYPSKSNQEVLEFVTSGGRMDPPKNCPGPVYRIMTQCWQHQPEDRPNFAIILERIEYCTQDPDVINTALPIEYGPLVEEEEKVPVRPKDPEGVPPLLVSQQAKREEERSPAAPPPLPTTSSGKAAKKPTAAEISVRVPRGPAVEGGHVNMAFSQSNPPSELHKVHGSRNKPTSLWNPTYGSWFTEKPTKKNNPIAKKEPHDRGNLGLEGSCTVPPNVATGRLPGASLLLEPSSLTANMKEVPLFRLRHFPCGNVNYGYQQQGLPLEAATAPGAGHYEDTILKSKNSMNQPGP
# T6 sequence (P08922 1883-2347 limits assumed): as the sequence (P08922 1883-2347 G2032R limits assumed) above, with R150G counted along it
# T8 sequence (Q9UM73 with tags, fused parts or gaps): as the sequence (Q9UM73 with tags, fused parts or gaps L1196M/G1202R) above, with M635L, R641G counted along it
# T3 sequence (P08922 1945-2222 limits assumed): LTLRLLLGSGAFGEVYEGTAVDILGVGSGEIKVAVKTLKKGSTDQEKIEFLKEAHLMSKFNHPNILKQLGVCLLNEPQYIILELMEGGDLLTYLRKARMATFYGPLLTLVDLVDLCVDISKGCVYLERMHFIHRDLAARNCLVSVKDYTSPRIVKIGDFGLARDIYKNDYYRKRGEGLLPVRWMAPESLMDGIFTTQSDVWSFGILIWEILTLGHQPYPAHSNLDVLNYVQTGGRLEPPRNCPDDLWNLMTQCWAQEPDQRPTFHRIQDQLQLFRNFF
# T4 sequence (P08922 1945-2222 G2032R limits assumed): as the sequence (P08922 1945-2222 limits assumed) above, with G88R counted along it
# T1 sequence (Q9UM73 1116-1392 limits assumed): as the sequence (Q9UM73 1116-1392 L1196M/G1202R limits assumed) above, with M81L, R87G counted along it
# T10 sequence (P04629 510-796 limits assumed): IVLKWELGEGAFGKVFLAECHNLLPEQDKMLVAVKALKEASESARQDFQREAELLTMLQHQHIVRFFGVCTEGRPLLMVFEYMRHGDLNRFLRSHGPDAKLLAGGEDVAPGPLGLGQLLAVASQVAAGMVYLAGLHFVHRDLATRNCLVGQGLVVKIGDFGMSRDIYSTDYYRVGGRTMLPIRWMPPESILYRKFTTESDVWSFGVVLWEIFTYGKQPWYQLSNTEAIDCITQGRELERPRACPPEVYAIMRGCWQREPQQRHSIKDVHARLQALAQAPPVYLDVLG
Ki (ALK-wt) [nM],Ki (ALK L1196M/G1202R) [nM],Ki (ROS1-wt) [nM],Ki (ROS1-G2032R) [nM],Ki (TRKA-wt) [nM],IC50 [1] [nM],IC50 [2] [nM],IC50 [3] [nM],IC50 [4] [nM],IC50 (Ba/F3 cells TPM3-TRKA) [nM],SMILES,TPM3-NTRK1-wt/CD74-ROS1-G2032R selectivity ratio [5],TPM3-NTRK1-wt/CD74-ROS1-wt selectivity ratio [5],TPM3-NTRK1-wt/EML4-ALK-L1196M-G1202R selectivity ratio [5],TPM3-NTRK1-wt/EML4-ALK-wt selectivity ratio [5]
< 50,< 50,< 50,< 50,> 500,0.1 to 50,0.1 to 50,0.1 to 50,50 to 500,> 500,"Cc1nn(CC2CC2)c2c1Cn1nccc1-c1ccc(F)cc1[C@@H](C)Oc1cc-2cnc1N [Example 45, (19R)-3-(cyclopropylmethyl)-16-fluoro-5,19-dimethyl-20-oxa-3,4,8,9,23-pentaazapentacyclo[19.3.1.0^2,^6.0^8,^12.0^13,^18]pentacosa-1(24),2(6),4,9,11,13,15,17,21(25),22-decaen-22-amine]","A (bin A for very high selectivity, ratio >30-fold)","A (bin A for very high selectivity, ratio >30-fold)","A (bin A for very high selectivity, ratio >30-fold)","A (bin A for very high selectivity, ratio >30-fold)"
< 50,50 to 500,< 50,50 to 500,> 500,0.1 to 50,0.1 to 50,0.1 to 50,50 to 500,> 500,"C[C@H]1Oc2cc(cnc2N)-c2c(C#N)ncn2Cc2nccnc2-c2ccc(F)cc21 [Example 46, (20R)-23-amino-17-fluoro-20-methyl-21-oxa-4,6,9,12,24-pentaazapentacyclo[20.3.1.0^2,^6.0^8,^13.0^14,^19]hexacosa-1(25),2,4,8(13),9,11,14,16,18,22(26),23-undecaene-3-carbonitrile]","A (bin A for very high selectivity, ratio >30-fold)","A (bin A for very high selectivity, ratio >30-fold)","A (bin A for very high selectivity, ratio >30-fold)","A (bin A for very high selectivity, ratio >30-fold)"
< 50,50 to 500,< 50,> 500,> 500,0.1 to 50,50 to 500,0.1 to 50,> 500,> 500,C[C@H]1Oc2cc(cnc2N)-c2c(C#N)cnn2Cc2nccnc2-c2ccc(F)cc21 [Example 47],"B (bin B for high selectivity, ratio >10-fold)","A (bin A for very high selectivity, ratio >30-fold)","C (bin C for moderate selectivity, ratio ≥1)","A (bin A for very high selectivity, ratio >30-fold)"
< 50,< 50,< 50,< 50,50 to 500,0.1 to 50,0.1 to 50,0.1 to 50,0.1 to 50,> 500,"C[C@H]1Oc2cc(cnc2N)-c2c(C#N)ncn2Cc2ncc(F)cc2-c2ccc(F)cc21 [Example 48, (20R)-23-amino-11,17-difluoro-20-methyl-21-oxa-4,6,9,24-tetraazapentacyclo[20.3.1.0^2,^6.0^8,^13.0^14,^19]hexacosa-1(25),2,4,8(13),9,11,14,16,1 8,22(26),23-undecaene-3-carbonitrile]","A (bin A for very high selectivity, ratio >30-fold)","A (bin A for very high selectivity, ratio >30-fold)","B (bin B for high selectivity, ratio >10-fold)","A (bin A for very high selectivity, ratio >30-fold)"
< 50,50 to 500,< 50,50 to 500,> 500,0.1 to 50,50 to 500,0.1 to 50,> 500,> 500,"C[C@H]1Oc2cc(cnc2N)-c2c(C#N)cnn2Cc2ncsc2-c2ccc(F)cc21 [Example 49, (19R)-22-amino-16-fluoro-19-methyl-20oxa-11-thia-5,6,9,23-tetraazapentacyclo[19.3.1.0^2,^6.0^8,^12.0^13,^18]pentacosa-1(24),2,4,8(12),9,13,15,17,21(25),22-decaene-3-carbonitrile]","B (bin B for high selectivity, ratio >10-fold)","A (bin A for very high selectivity, ratio >30-fold)","C (bin C for moderate selectivity, ratio ≥1)","A (bin A for very high selectivity, ratio >30-fold)"
< 50,< 50,< 50,50 to 500,50 to 500,0.1 to 50,0.1 to 50,0.1 to 50,50 to 500,> 500,"CCc1noc2c1-c1cnc(N)c(c1)O[C@H](C)c1cc(F)ccc1-c1ncnn1C2 [Example 50, (19R)-3-ethyl-16-fluoro-19-methyl-5,20-dioxa-4,8,9,11,23-pentaazapentacyclo[19.3.1.0^2,^6.0^8,^12.0^13,^18]pentacosa-1(24),2(6),3,9,11,13,15,17,21(25),22-decaen-22-amine]","B (bin B for high selectivity, ratio >10-fold)","A (bin A for very high selectivity, ratio >30-fold)","C (bin C for moderate selectivity, ratio ≥1)","A (bin A for very high selectivity, ratio >30-fold)"
< 50,< 50,< 50,< 50,> 500,0.1 to 50,0.1 to 50,0.1 to 50,0.1 to 50,> 500,"C[C@H]1Oc2cc(cnc2N)-c2c(nnn2CC2CC2)Cc2nn(C)nc2-c2ccc(F)cc21 [Example 51, (19R)-3-(cyclopropylmethyl)-16-fluoro-10,19-dimethyl-20-oxa-3,4,5,9,10,11,23-heptaazapentacyclo[19.3.1.0^2,^6.0^8,^12.0^13,^18]pentacosa-1(24),2(6),4,8,11,13,15,17,21(25),22-decaen-22-amine]","A (bin A for very high selectivity, ratio >30-fold)","A (bin A for very high selectivity, ratio >30-fold)","A (bin A for very high selectivity, ratio >30-fold)","A (bin A for very high selectivity, ratio >30-fold)"
